Assay results from patent publication US9969742B2, “Imidazotriazinone compounds” (Ironwood Pharmaceuticals, Inc., priority 2012, dated 2018).

target: T1, PDE9A2 (Homo sapiens, UniProt O76083); assay: Phosphodiesterase enzyme screening assay, PDE9A2; assay type: biochemical; details: 4.0 μM cGMP substrate, 1 hour at R.T.; read-out: Band (PDE9A2 IC50)
T1 construct: purchased Reaction Biology Corporation, Malvern, Pa
How it was run: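 Read-out was electrophoretic mobility-shift separation on chip of fluorescent cyclic nucleotide from 5′-AMP/5′-GMP, with inhibition or enhancement judged against control wells (quadruplicate means). Reactions lasted 1 h at RT in HEPES pH 7.5 buffer with MgCl2, DTT and Brij plus 4.0 μM cGMP substrate, then were halted with EDTA stop buffer.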

T1 sequence (O76083 1-533 isoform O76083-2): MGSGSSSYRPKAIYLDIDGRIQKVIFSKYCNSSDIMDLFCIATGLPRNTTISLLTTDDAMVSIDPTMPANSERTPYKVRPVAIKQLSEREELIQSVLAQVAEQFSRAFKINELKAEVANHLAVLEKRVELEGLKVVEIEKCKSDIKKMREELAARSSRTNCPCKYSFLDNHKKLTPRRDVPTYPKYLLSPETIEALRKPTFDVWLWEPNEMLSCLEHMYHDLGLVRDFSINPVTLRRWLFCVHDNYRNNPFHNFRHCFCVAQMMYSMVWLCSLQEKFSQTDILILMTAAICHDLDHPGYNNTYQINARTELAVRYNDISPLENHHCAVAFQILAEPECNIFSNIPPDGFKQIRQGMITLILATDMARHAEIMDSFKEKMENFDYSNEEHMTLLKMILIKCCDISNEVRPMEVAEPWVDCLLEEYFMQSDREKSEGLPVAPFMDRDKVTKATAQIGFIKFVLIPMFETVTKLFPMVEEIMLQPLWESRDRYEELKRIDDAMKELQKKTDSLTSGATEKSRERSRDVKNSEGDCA

Row | Molecule | IC50 [µM]
1 | CC1CN(Cc2nc3ccccn3n2)CC1c1nn2c(CC(F)(F)F)ncc2c(=O)[nH]1 (stereo not drawn) [2-((3,4-trans)-1-([1,2,4]triazolo[1,5-a]pyridin-2-ylmethyl)-4-methylpyrrolidin-3-yl)-7-(2,2,2-trifluoroethyl)imidazo[5,1-f][1,2,4]triazin-4(3H)-one] | < 1

same assay, conditions: Table 1; 10 concentrations; 4.0 μM cGMP substrate; 1 hour at R.T.; read-out: Band (PDE9A2 IC50)

Row | Molecule | IC50 [µM]
2 | CC1CN(C(=O)c2ccncn2)CC1c1nn2c(C3CCOCC3)ncc2c(=O)[nH]1 (single isomer, unassigned; (-)) [(−)-2-((3,4-trans)-4-methyl-1-(pyrimidine-4-carbonyl)pyrrolidin-3-yl)-7-(tetrahydro-2H-pyran-4-yl)imidazo[5,1-f][1,2,4]triazin-4(3H)-one] | < 1
3 | CC1CN(C(=O)c2cncnc2)CC1c1nn2c(C3CCOCC3)ncc2c(=O)[nH]1 (single isomer, unassigned; (-)) [(−)-2-((3,4-trans)-4-methyl-1-(pyrimidine-5-carbonyl)pyrrolidin-3-yl)-7-(tetrahydro-2H-pyran-4-yl)imidazo[5,1-f][1,2,4]triazin-4(3H)-one] | < 1
4 | CC1CN(C(=O)c2ccccn2)CC1c1nn2c(C3CCOCC3)ncc2c(=O)[nH]1 (single isomer, unassigned; (-)) [(−)-2-((3,4-trans)-4-methyl-1-picolinoylpyrrolidin-3-yl)-7-(tetrahydro-2H-pyran-4-yl)imidazo[5,1-f][1,2,4]triazin-4(3H)-one] | < 1
5 | CC1CN(Cc2ccccc2C#N)CC1c1nn2c(C3CCOCC3)ncc2c(=O)[nH]1 (single isomer, unassigned; (-)) [(−)-2-(((3,4-trans)-3-methyl-4-(4-oxo-7-(tetrahydro-2H-pyran-4-yl)-3,4-dihydroimidazo[5,1-f][1,2,4]triazin-2-yl)pyrrolidin-1-yl)methyl)benzonitrile] | < 1
6 | CC1CN(S(=O)(=O)c2ccccc2C#N)CC1c1nn2c(C3CCOCC3)ncc2c(=O)[nH]1 (single isomer, unassigned; (-)) [(−)-2-(((3,4-trans)-3-methyl-4-(4-oxo-7-(tetrahydro-2H-pyran-4-yl)-3,4-dihydroimidazo[5,1-f][1,2,4]triazin-2-yl)pyrrolidin-1-yl)sulfonyl)benzonitrile] | < 1
7 | CC1CN(Cc2cccc(C#N)c2)CC1c1nn2c(C3CCOCC3)ncc2c(=O)[nH]1 (single isomer, unassigned; (-)) [(−)-3-(((3,4-trans)-3-methyl-4-(4-oxo-7-(tetrahydro-2H-pyran-4-yl)-3,4-dihydroimidazo[5,1-f][1,2,4]triazin-2-yl)pyrrolidin-1-yl)methyl)benzonitrile] | < 1
8 | Cc1ccc(F)cc1-c1ncc2c(=O)[nH]c(C3CN(Cc4ncccn4)CC3C)nn12 (single isomer, unassigned; (-)) [(−)-7-(5-fluoro-2-methylphenyl)-2-((3,4-trans)-4-methyl-1-(pyrimidin-2-ylmethyl)pyrrolidin-3-yl)imidazo[1,5-f][1,2,4]triazin-4(3H)-one] | 1 to 10
9 | CC1CN(Cc2ccccc2)CC1c1nn2c(C3CCN(C(=O)OC(C)(C)C)CC3)ncc2c(=O)[nH]1 (single isomer, unassigned; (-)) [(−)-tert-butyl 4-(2-((3,4-trans)-1-benzyl-4-methylpyrrolidin-3-yl)-4-oxo-3,4-dihydroimidazo[1,5-f][1,2,4]triazin-7-yl)piperidine-1-carboxylate] | > 10
10 | (+)-2-((3,4-trans)-1-benzyl-4-methylpyrrolidin-3-yl)-7-(piperidin-4-yl)imidazo[1,5-f][1,2,4]triazin-4(3H)-one | 1 to 10
11 | (−)-2-((3,4-trans)-1-benzyl-4-methylpyrrolidin-3-yl)-7-(piperidin-4-yl)imidazo[1,5-f][1,2,4]triazin-4(3H)-one | > 10
